According to a melting point compilation (Tetko et al.; mined from patent text by program, amines drawn as free bases though some values may be those of a salt):

melting point [°C] | Structure (SMILES)
152 to 154 | CC(C)(C)c1cc(SCCC(=O)NC2CCC3CC2C3(C)C)cc(C(C)(C)C)c1O (stereo not drawn)
74 to 76 | Cc1nc2ccsc2c2ccccc12
218 to 219 | CCCOc1ccccc1-c1nc2cc3ncn(Cc4ccccc4)c3cc2c(=O)[nH]1
152 to 154 | CC(=O)Oc1cccc(C(=O)N[C@@H](Cc2ccccc2)[C@H](OC(C)=O)C(=O)O)c1C
204 to 205 | O=C(Nc1cccnc1)N1CCc2cc(Cl)ccc21
130 to 133 | O=C(Oc1ccc(Oc2ccccc2)cc1)N1CCC(O)CC1
154 to 157 | C=C(c1cccnc1)c1c(CC(=O)OC)[nH]c2ccccc12
211 to 213 | CC1=NN=C(c2ccc(NC(=O)CN(C)C)cc2)c2cc3c(cc2C1)OCO3
171 to 172 | Cc1cccc(C(=O)NC(NC(=NC#N)Nc2cccnc2)C(C)(Cl)Cl)c1 (stereo not drawn)
134 to 138 | Cc1cc(C(=O)NC(CCC(=O)OC(C)(C)C)C(=O)O)ccc1-c1c2cc(F)c(=O)cc-2oc2cc(O)c(F)cc12 (stereo not drawn)
118 to 123 | Cc1c(-c2ccc(O)cc2)n(Cc2ccc(C#CCN3CCCCC3)cc2)c2ccc(O)cc12
258 to 259 | CC(C)(C)c1ccc(C(=O)Nc2cn3cc(-c4ccoc4)ccc3n2)cc1
118 to 119 | CCOC(=O)COc1cc(-n2nc(C)n(C(F)F)c2=O)c(Cl)cc1Cl
136 to 137 | CCCCCS(=O)(=O)NC(=O)CCc1cc(C(C)(C)C)nn1Cc1ccc(C(F)(F)F)cc1Cl
101 to 104 | COC(CN(C)C(=O)Nc1nnc(C(C)Oc2ccccc2Cl)s1)OC (stereo not drawn)
115 to 118 | OC(Cn1cncn1)c1ccc(Oc2ccc(Br)cc2)cc1Cl (stereo not drawn)
144 to 145 | C=CC(=O)Nc1c(C)cccc1C
160 to 162 | CNc1cccc(NC(=O)CO)c1C#N
184 to 188 | O=C1OC2CC1(O)CC(O)C2O (stereo not drawn)
258 to 262 | Nc1nc(N)c2c(CCc3ccc(C(=O)N[C@@H](CCC(=O)O)C(=O)O)cc3)cnc-2[nH]1
198 to 201 | O=C1NCCN1c1ccc(C2CCN(C(=O)C(F)(F)F)CC2)cc1
147 to 148 | CN(C)c1cnc(-c2cccc(Cl)c2Cl)c(N)n1

melting point [°C] | Structure (SMILES)
117 to 119 | CC1(C)Cc2cc(OCC(N)=O)c3c(c2C(c2ccccc2)=N1)CC(C)(C)O3
52 to 58 | CC(C)(C)OC(=O)NCCCON=C(c1ccccc1)c1cc2ccncc2[nH]1
159 to 162 | O=S1(=O)NCN(CCF)c2cc(Cl)c(Br)cc21
184 | C#CCN1C(=O)COc2cc(-c3nn(C)c(C(F)(F)F)c3Cl)c(F)cc21
83 to 84 | CCCCNC(=O)Oc1ccc2c(c1)c(C)cn2NCCCc1ccncc1F
63 to 66 | COc1ccc(C(=O)Nc2ccc(-c3ccc(C)cc3Cl)cc2)cc1CCCN(C)C
100 to 101 | CC(C)(CNC(=O)C(C)(C)CCC(=O)O)SN=O
257 to 264 | O=C(O)CN1C(=O)C(=Cc2ccc3ccccc3c2)SC1=S
162 to 163 | COc1ccnc(C(=O)c2[nH]c3cc(Cl)ccc3c2NC(=O)CC(C)C)c1
163 | CC(=O)n1cc(C2=CCN(CCCN3c4cccc5cccc(c45)S3(=O)=O)CC2)c2ccccc21
178 to 180 | COc1cc2c(OC)cccc2cc1-c1nc2cnccc2[nH]1
85 | O=C(OCCOCc1ccccc1)c1cc(Oc2ccc(C(F)(F)F)cc2Cl)ccc1[N+](=O)[O-]
215 to 216 | O=C(O)c1cc(-n2c(-c3ccc(Br)cc3)cc3c2CCC3)ccc1O
224 | Cc1cc(Nc2ccnc(Nc3ccc(S(=O)(=O)N(C)C4CCN(Cc5cn[nH]c5)CC4)cc3)n2)ccc1F
189 to 191 | C#CCN(c1ccc(C(=O)NC(CCc2nnn[nH]2)C(=O)O)nc1)C1CCc2cc3nc(C)[nH]c(=O)c3cc21 (mixture of isomers)
129 to 131 | CCC(Oc1cnc(Cl)c(Cl)c1)C(=O)NC(C)(C)C#CCO (stereo not drawn)
66 to 68 | O=C1CCSc2ncccc21
170 to 171 | O=C(O)c1cc(-c2ccccc2)c2ccccc2n1
112 to 113 | OC(CS)(Cn1cncn1)c1ccc(F)cc1F (stereo not drawn)
153 to 155 | COC(=O)C(C)(C)Cc1ccc(OCc2oc(-c3ccc(C(F)(F)F)cc3)cc2C(=O)O)cc1
208 to 211 | Cc1ccc(C(=O)Nc2cc(N3CCOCC3)cc(C(F)(F)F)c2)cc1Nc1nccc(-c2cccnc2)n1
154 to 155 | CCCC(=O)OC1(C(C)=O)C(C)CC2C3CCC4=CC(=O)C=CC4(C)C3(Cl)C(=O)CC21C (stereo not drawn)

melting point [°C] | Structure (SMILES)
142 to 143 | Cc1cc(C)c(C[C@@H](C(=O)[C@H](Cc2c(C)cc(C)cc2C)N2C(=O)c3ccccc3C2=O)N2C(=O)c3ccccc3C2=O)c(C)c1
184 | COc1ccc2oc(Cc3c(Cl)cccc3Cl)c(CC#N)c2c1
210 to 212 | CCOc1cc(OC)c(/C=C/C(=O)c2ccc(C(=O)O)cc2)cc1-c1cccs1
139 to 146 | COC(=O)c1ncccc1N
81 to 83 | O=c1ccc2ccc(CNCCNc3ccccc3)cc2o1
150 | CN1CCN(c2ccc(-c3cc(-c4c(-c5ccccn5)nc5ccccn45)ccn3)cc2)CC1
148 to 151 | CCOc1ccc(C2=NN(c3ccc(C(=O)N4CCN(c5cnn(-c6ccccc6)c(=O)c5Cl)CC4)cc3)C(=O)[C@@H]3CC=CC[C@H]23)cc1OCC
221 to 222 | Cc1cc2[nH]c(=O)n(S(=O)(=O)c3ccc(Cl)cc3)c(=O)c2cc1C
56 to 57 | Cc1cc(Cl)ccc1N=CN(C)SSN(C)C=Nc1ccc(Cl)cc1C
105 to 108 | CC(C)c1cc(C(C)C)c(OCC(=O)O)c(C(C)C)c1
237 to 238 | CC(=O)c1ccc2nc(NC(=O)c3ccc(C(C)(C)C)cc3)cn2n1
153 | Cc1nn(C)c(C)c1Nc1ccc([N+](=O)[O-])cc1[N+](=O)[O-]
118 to 119 | CC(=O)Cc1nc2ccccc2s1
173 | CC1(C)CC(OC(=O)Nc2ccccc2)CC(C)(C)N1CC(OC(=O)Nc1ccccc1)c1ccccc1 (stereo not drawn)
109 to 112 | CC(C)n1cnc2c(N[C@H](CO)c3ccccc3)nc(NC[C@@H](C)O)nc21
174 | COc1cc(CCCN2CCc3cc(OC)c(OC)cc3C2)ccc1NC(=O)c1cccc2c(=O)c3cccc(C)c3[nH]c12
108 to 110 | C#CCOc1cc(-n2c(OC)nc(C(F)(F)F)cc2=O)c(F)cc1Cl
287 to 290 | NC(=O)c1ccc2c(c1)C(=O)N1CCC[C@H]1CO2
121 to 124 | CCc1nc2c(cnn2CC)c(NC2CCOCC2)c1CNC(=O)c1cccc(C(=O)NCc2cc(Cl)cc(-c3cccc(CN4CCCNCC4)c3)c2)c1
235 to 237 | O=S1(=O)N=CN(C2CCCCCCC2)c2ccc(Cl)cc21

Structure (SMILES) | melting point [°C]
CN1C2CC(OC(=O)Cc3ccccc3)CC1C(O)C2O (stereo not drawn) | 120 to 122
CCCCCC(=O)C=Cc1cc(O)c2c(c1)OC(C)(C)C1CC=C(C)CC21 (stereo not drawn) | 119
O=[N+]([O-])C=C1CN=C(c2ccccc2)c2cc(Cl)sc2N1 | 154 to 156
N#Cc1nn(-c2c(Cl)cc(C(F)(F)F)cc2Cl)c(N)c1-c1ccc(Cl)cc1 | 235 to 237
